In patent publication US10632181B2, “Composition, containing RGD motif-containing peptide or fragment thereof, for treating burns and glaucoma, alleviating skin wrinkles, and promoting hair growth” (HUONS CO., LTD., priority 2014, dated 2020):
Positions of bridges follow the written chain, without caps; N, C: chain ends. No end group written: not given here.

What was measured:
Assay type in all cases: in vivo, Women aged 30-65
[1] = tested on: wrinkles around eyes; assay: Wrinkle extent around eyes by 3D imaging (PRIMOS Premium); details: for Rmax numerical value (maximum height of wrinkle profile) / Rp numerical value (maximum profile peak height) / Rv numerical value (maximum profile valley depth): in µm (unit assumed)
Procedure: Furthermore, the wrinkle extent was measured by 3D imaging. A target site to measure the wrinkle extent was regions around the eyes of the subjects, and the right side of the face was set as a measurement site. To measure the wrinkle extent, the subjects were allowed to wash the measurement site with water, and take a rest for 30 minutes in the waiting room under constant temperature constant humidity conditions of indoor temperature 20-25° C. and humidity 40-60% to acclimate the skin surface temperature and humidity to the environment of the measurement space, and were not permitted to drink water during the rest. For objective measurement, measurements were performed by one researcher, and the same site was measured at each time of the first visit before use and the second and third visits in 2 and 4 weeks after use. Before use and in 2 and 4 weeks after use, images of the site to which the test product (HU022 (SEQ ID NO:1)) was applied were formed using 3D skin imaging machine (PRIMOS Premium), and to verify if there is any difference in each of control group and experimental group in 4 weeks after use, wrinkle parameters, Ra, Rmax, Rt, Rp, Rv values, in the stored images of 2 weeks and 4 weeks after use relative to before use were analyzed.

[2] = tested on: wrinkles around eyes; assay: Wrinkle extent around eyes, skin replica, Visiometer SV600; set-up: R3 numerical value (average roughness): unit not given here; details: for R3 numerical value (average roughness): Before use
[3] = tested on: wrinkles around eyes; assay: Expert visual assessment of wrinkles (global photodamage score); details: for expert visual assessment score: severity 0-7
Procedure: Furthermore, visual assessment was performed. At each visit before and after use, experts assessed the wrinkle extent by scoring using global photodamage score (Br J Dermatol. 2010; 162(3):497-502). To verify if there is any difference in each of control group and experimental group in 4 weeks after use, a change (%) in visual assessment scores of 2 weeks and 4 weeks after use relative to before use was analyzed. The visual assessment scores are as follows (Table 18): […]

[4] = tested on: wrinkles around eyes; assay: Survey of subjects about wrinkle reduction effectiveness; details: for Number of subjects, wrinkle reduction survey / Percentage of subjects, wrinkle reduction survey / survey assessment about wrinkle reduction, test product versus control product: 4 weeks after use; for Mean of wrinkle reduction survey response: scale 0-4, 4 weeks after use; for survey assessment about wrinkle reduction, test product versus control product: third visit
Procedure: Furthermore, surveying the subjects about effectiveness was conducted. The subjects were asked to personally make responses about the extent to which the subjects felt that wrinkles reduced after use of test product using 5 levels: better (4), a little bit better (3), no change (2), a little bit worse (1), worse (0). The researcher determined if test product has efficacy by calculating the percentage of the number of subjects for each response.

[5] = tested on: wrinkles around eyes; assay: Wrinkle extent around eyes, skin replica, Visiometer SV600; set-up: R3 numerical value (average roughness) / R1 numerical value (skin roughness) / R4 numerical value (smoothness depth) / R5 numerical value (arithmetic average roughness): unit not given here
Procedure: The extent of wrinkles around eyes was measured using equipment. A target site to measure the wrinkle extent was regions around the eyes of the subjects, and the left side and the right side of the face were set as a measurement site. To measure the wrinkle extent, the subjects were allowed to wash the measurement site with water, and take a rest for 30 minutes in the waiting room under constant temperature and constant humidity conditions of indoor temperature 20-25° C. and humidity 40-60% to acclimate the skin surface temperature and humidity to the environment of the measurement space, and were not permitted to drink water during the rest. For objective measurement, measurements were performed by one researcher, and the same site was measured at each time of the first visit before use and the second and third visits in 2 and 4 weeks after use. Transparency profilometry analysis was performed using Visiometer SV600 (Courage-Khazaka electronic GmbH, Germany) on skin replica of the site to which test product and control product were applied before use and 2 and 4 weeks after use, and to identify if there is any difference in each of control group and experimental group after use, a change (%) in R1, R2, R4, R5 measurement values in 2 and 4 weeks after use relative to before use was analyzed.

## HU022: polypeptide consisting of 452nd-509th amino acids of ADAM 15 (GenBank AAH14566.1), 58 amino acids; commercial product (EYEGENE Inc.)
[1]; 2 weeks after use, twice daily
  Ra numerical value (roughness average of wrinkle profile): 18.20 ± 3.94
  Rt numerical value (distance between highest peak and lowest valley): 187.85 ± 34.10
  Rmax numerical value (maximum height of wrinkle profile): 168.83 ± 29.61
  Rp numerical value (maximum profile peak height): 116.47 ± 35.75
  Rv numerical value (maximum profile valley depth): 71.38 ± 16.44
[1]; 4 weeks after use, twice daily
  Ra numerical value (roughness average of wrinkle profile): 17.00 ± 3.88
  Rt numerical value (distance between highest peak and lowest valley): 184.63 ± 36.83
  Rmax numerical value (maximum height of wrinkle profile): 168.80 ± 33.21
  Rp numerical value (maximum profile peak height): 121.88 ± 38.06
  Rv numerical value (maximum profile valley depth): 62.75 ± 11.92
[1]; Before use
  Ra numerical value (roughness average of wrinkle profile): 19.19 ± 4.27
  Rt numerical value (distance between highest peak and lowest valley): 195.05 ± 31.31
  Rmax numerical value (maximum height of wrinkle profile): 176.29 ± 27.79
  Rp numerical value (maximum profile peak height): 122.73 ± 31.55
  Rv numerical value (maximum profile valley depth): 72.32 ± 17.16
[1]; Before use-2 weeks after use
  Change(%) in Ra: −5.15%
  Change(%) in Rmax: −4.23%
  Change(%) in Rp: −5.10%
  Change(%) in Rt: −3.69%
  Change(%) in Rv: −1.30%
[1]; Before use-4 weeks after use
  Change(%) in Ra: −11.42%
  Change(%) in Rmax: −4.25%
  Change(%) in Rp: −0.70%
  Change(%) in Rt: −5.35%
  Change(%) in Rv: −13.24%
[2]
  R3 numerical value (average roughness): 34.24 ± 3.51
[3]; 2 weeks after use
  expert visual assessment score: 2.17 ± 0.75
[3]; 4 weeks after use
  expert visual assessment score: 1.67 ± 1.03
[3]; Before use
  expert visual assessment score: 2.17 ± 0.75
[3]; Before use-2 weeks after use
  Change(%) in expert visual assessment score: 0%
[3]; Before use-4 weeks after use
  Change(%) in expert visual assessment score: −23.08%
[4]; response 0 (very bad)
  Number of subjects, wrinkle reduction survey: 0
[4]; response 1 (bad)
  Number of subjects, wrinkle reduction survey: 0
[4]; response 2 (fair)
  Number of subjects, wrinkle reduction survey: 1
  Percentage of subjects, wrinkle reduction survey: (16.7) %
[4]; response 3 (good)
  Number of subjects, wrinkle reduction survey: 5
  Percentage of subjects, wrinkle reduction survey: (83.3) %
[4]; response 4 (very good)
  Number of subjects, wrinkle reduction survey: 0
[4]
  Mean of wrinkle reduction survey response: 2.83
  survey assessment about wrinkle reduction, test product versus control product: test product was better at reducing wrinkles than control product
[5]; 2 weeks after use, twice daily
  R1 numerical value (skin roughness): 54.59 ± 10.99
  R2 numerical value (maximum roughness): 36.87 ± 6.02
  R3 numerical value (average roughness): 24.41 ± 4.16
  R4 numerical value (smoothness depth): 23.64 ± 5.11
  R5 numerical value (arithmetic average roughness): 9.44 ± 2.44
[5]; 4 weeks after use, twice daily
  R1 numerical value (skin roughness): 51.06 ± 19.28
  R2 numerical value (maximum roughness): 29.16 ± 5.12
  R3 numerical value (average roughness): 18.62 ± 2.79
  R4 numerical value (smoothness depth): 22.94 ± 10.03
  R5 numerical value (arithmetic average roughness): 10.10 ± 5.97
[5]; Before use
  R1 numerical value (skin roughness): 76.23 ± 12.15
  R2 numerical value (maximum roughness): 54.26 ± 5.70
  R4 numerical value (smoothness depth): 30.41 ± 7.01
  R5 numerical value (arithmetic average roughness): 13.57 ± 3.65
[5]; Before use-2 weeks after use
  Change(%) in R1: −28.38%
  Change(%) in R4: −22.27%
  Change(%) in R5: −30.43%
[5]; Before use-4 weeks after use
  Change(%) in R1: −33.02%
  Change(%) in R3: −45.62%
  Change(%) in R4: −24.57%
  Change(%) in R5: −26.52%

## HU024 (RPTRGDCDLPEFCPG; disulfide 7-13; listed as Homo sapiens)
[1]; 2 weeks after use, twice daily
  Ra numerical value (roughness average of wrinkle profile): 18.33 ± 2.12
  Rt numerical value (distance between highest peak and lowest valley): 216.37 ± 41.76
  Rmax numerical value (maximum height of wrinkle profile): 198.77 ± 39.74
  Rp numerical value (maximum profile peak height): 155.24 ± 43.18
  Rv numerical value (maximum profile valley depth): 61.12 ± 8.02
[1]; 4 weeks after use, twice daily
  Ra numerical value (roughness average of wrinkle profile): 17.71 ± 2.43
  Rt numerical value (distance between highest peak and lowest valley): 210.60 ± 38.61
  Rmax numerical value (maximum height of wrinkle profile): 196.85 ± 39.02
  Rp numerical value (maximum profile peak height): 153.78 ± 36.12
  Rv numerical value (maximum profile valley depth): 56.82 ± 12.01
[1]; Before use
  Ra numerical value (roughness average of wrinkle profile): 18.64 ± 3.19
  Rt numerical value (distance between highest peak and lowest valley): 225.94 ± 45.00
  Rmax numerical value (maximum height of wrinkle profile): 206.55 ± 40.54
  Rp numerical value (maximum profile peak height): 160.85 ± 37.51
  Rv numerical value (maximum profile valley depth): 65.09 ± 11.95
[1]; Before use-2 weeks after use
  Change(%) in Ra: −0.75%
  Change(%) in Rmax: −3.77%
  Change(%) in Rp: −3.48%
  Change(%) in Rt: −4.24%
  Change(%) in Rv: −6.10%
[1]; Before use-4 weeks after use
  Change(%) in Ra: −4.10%
  Change(%) in Rmax: −4.69%
  Change(%) in Rp: −4.40%
  Change(%) in Rt: −6.79%
  Change(%) in Rv: −12.71%
[2]
  R3 numerical value (average roughness): 29.15 ± 5.56
[2]; Before use-2 weeks after use
  Change(%) in R3: −28.66%
[3]; 2 weeks after use
  expert visual assessment score: 2.00 ± 0.63
[3]; 4 weeks after use
  expert visual assessment score: 1.67 ± 0.82
[3]; Before use
  expert visual assessment score: 2.00 ± 0.63
[3]; Before use-2 weeks after use
  Change(%) in expert visual assessment score: 0%
[3]; Before use-4 weeks after use
  Change(%) in expert visual assessment score: −16.67%
[4]; response 0 (very bad)
  Number of subjects, wrinkle reduction survey: 0
[4]; response 1 (bad)
  Number of subjects, wrinkle reduction survey: 0
[4]; response 2 (fair)
  Number of subjects, wrinkle reduction survey: 1
  Percentage of subjects, wrinkle reduction survey: (16.7) %
[4]; response 3 (good)
  Number of subjects, wrinkle reduction survey: 4
  Percentage of subjects, wrinkle reduction survey: (66.7) %
[4]; response 4 (very good)
  Number of subjects, wrinkle reduction survey: 1
  Percentage of subjects, wrinkle reduction survey: (16.7) %
[4]
  Mean of wrinkle reduction survey response: 3.00
  survey assessment about wrinkle reduction, test product versus control product: test product was better at reducing wrinkles than control product
[5]; 2 weeks after use, twice daily
  R1 numerical value (skin roughness): 57.29 ± 3.21
  R2 numerical value (maximum roughness): 30.71 ± 6.57
  R3 numerical value (average roughness): 20.80 ± 3.97
  R4 numerical value (smoothness depth): 26.24 ± 2.90
  R5 numerical value (arithmetic average roughness): 11.58 ± 0.89
[5]; 4 weeks after use, twice daily
  R1 numerical value (skin roughness): 45.23 ± 13.77
  R2 numerical value (maximum roughness): 28.67 ± 7.47
  R3 numerical value (average roughness): 17.81 ± 4.00
  R4 numerical value (smoothness depth): 20.64 ± 6.07
  R5 numerical value (arithmetic average roughness): 8.42 ± 3.48
[5]; Before use
  R1 numerical value (skin roughness): 71.33 ± 15.86
  R2 numerical value (maximum roughness): 46.06 ± 11.62
  R4 numerical value (smoothness depth): 31.44 ± 11.04
  R5 numerical value (arithmetic average roughness): 13.52 ± 5.43
[5]; Before use-2 weeks after use
  Change(%) in R1: −19.68%
  Change(%) in R4: −16.54%
  Change(%) in R5: −14.36%
[5]; Before use-4 weeks after use
  Change(%) in R1: −36.59%
  Change(%) in R3: −54.55%
  Change(%) in R4: −34.36%
  Change(%) in R5: −37.71%
